# Laboratory results reported in US9427691B2, “Antimicrobial air filter” (PTI Technologies, Inc., priority 2014, dated 2016).
# How the values were obtained:
# Assay type in all cases: cell-based
# [1] = test system: Staphylococcus aureus (ATCC #6538); assay: quantitative test for bacterial growth on treated air filter media; conditions: for # of Bacteria Recovered / % Reduction / Log Reduction (S): air filter media saturated with solution and dried, 18 hours at 37 C
# Experimental: There are various anti-microbial agents that are available for application to the air filter media 16. […] To determine the effectiveness of an antimicrobial agent with regard to bacteria, samples of air filter media 16 were treated with various solutions of antimicrobial agents and subjected to a quantitative test. In the quantitative test for bacterial growth, an air filter media sample was saturated with a solution of an antimicrobial agent and allowed to dry. The air filter media sample was then placed in a sealed container and a 0.2 mL inoculum of Staphylococcus aureus (ATCC #6538) was placed, in microdroplets, on the surface of the air filter media sample. A solution having a 0.05% concentration of polysorbate 80 was added to the inoculum as a wetting agent. The air filter media sample was then incubated for 18 hours at a temperature of 37 C°. After incubation, 20 mL of […] broth was added to the container, and the container was shaken. The bacteria in the resulting liquid were then quantified using a series of dilution plates.
# Aspergillus niger fungus = assay: antifungal test AATCC Test Method 30-2013 on treated air filter media
# Experimental: (§1) Air filter media samples treated with the aforementioned antimicrobial solutions were then tested for antifungal properties using the common American Association of Textile Chemists and Colorists (AATCC) Test Method 30-2013. […] A larger growth-free zone indicates higher antifungal properties, and a higher surface inhibition indicates higher antifungal properties. The test was performed for both Aspergillus niger and Trichoderma virens species of fungus.
# [2] = test system: Trichoderma virens fungus; assay: as above
# Experimental: as §1
Structure (SMILES),effectiveness at inhibiting bacterial growth (in words) [1],# of Bacteria Recovered [1],% Reduction [1] [%],Log Reduction (S) [1],effectiveness at inhibiting fungal growth (in words) (Aspergillus niger fungus),Growth-Free Zone in MM (Aspergillus niger fungus; treated filter media) [MM],Surface Inhibition (Aspergillus niger fungus; treated filter media),effectiveness at inhibiting fungal growth (in words) [2],Growth-Free Zone in MM ([2]; treated filter media) [MM],Surface Inhibition ([2]; treated filter media)
"Cc1ccc(S(=O)(=O)C(I)I)cc1 [1% diiodomethyl-p-tolyl sulfone, diiodomethyl-p-tolyl sulfone]",most effective,<2.00 × 10^1,>99.9,>4.8,did not inhibit any growth,0,0,limited in its effectiveness,0,50
"[Cl][Ag] [2% silver chloride, silver chloride]",,1.81 × 10^4,98.6,1.8,,,,,,
